These results are taken from patent US20250296938A1, “Compounds that Interact with the Ras Superfamily for the Treatment of Cancers, Inflammatory Diseases, Rasopathies, and Fibrotic Disease” (SHY Therapeutics, LLC, priority 2018, published 2025).

In this test the test system is MIA PaCa-2 pancreatic cancer cell line. The test is described as follows: Cell proliferation assay (DAPI). As to conditions: Homo sapiens, MIA PaCa-2 (Table 5A); for inhibition at 10 µM: read-out: % Inhibition of cell proliferation, MIA PaCa-2 % inh. Format: cell-based. The method, then:
Cell lines: Human NSCLC cells NCI-H1975 and NCI-H1299, and tumor-derived pancreatic cancer cell lines Panc-1, MIA-PACA2, and BxPC3, were all purchased from American Type Culture Collection and grown in complete RPMI medium (BxPC3, NCI-H1975 and NCI-H1299) or DMEM-High Glucose (Panc1 and MIA-PaCa-2), supplemented with penicillin (100 U/mL), streptomycin (100 μg/mL), and 10% heat-inactivated FBS at 37° C. in a humidified incubator with 5% CO2.
Method: Cells were plated at 2000 to 5000 cells/well density in 96-wells plate and cultured ON. Small molecules to be tested were added to the cells in the final concentration of 10 µM in the presence of 0.3% DMSO and 10% FBS, and incubated for 2-4 days at 37° C. in a humidified incubator with 5% CO2. For IC50 value determination, serial dilutions of compounds were added to cells under the same conditions.
Assay: At the end of the incubation period, cell cultures were fixed with a 50-50 mixture (v/v) acetone-methanol for 10 minutes at −20° C., followed by rehydration in PBS for 10 minutes at room temperature. DNA total content was determined by staining cells with DAPI (1 ug/ml) in PBS for 10 minutes at room temperature, followed by 3 washes with PBS. After staining, DAPI fluorescence was recorded (358 nm excitation/461 nm emission) with the 96-well plate reader Molecular Devices Spectramax M3; degree of small molecule-dependent proliferation inhibition was calculated from raw data.

For `COc1c(F)cccc1-c1sc2nc(-c3nccn3C)nc(N[C@@H]3CC[C@H](OC)C3)c2c1-c1ccccc1` [drawing 622], the inhibition at 10 µM lay in the range of 76 to 100% and the concentration for half-maximal inhibition (IC50) was in the range of 750 to 1000 nM.

In the case of `COC1CCC(Nc2nc(-c3nccn3C)nc3sc(-c4cccc5[nH]ncc45)c(-c4ccccc4)c23)C1` (centres unmarked) [drawing 623], the inhibition at 10 µM lay in the range of 76 to 100% and the IC50 lay within 750 to 1000 nM.

As for `CO[C@H]1CC[C@@H](Nc2nc(-c3nccn3C)nc3sc(-c4cccc5[nH]ncc45)c(-c4ccccc4)c23)C1` [drawing 624], the inhibition at 10 µM lay within 76 to 100% and the IC50 was in the range of 750 to 1000 nM.

`COC1CCN(c2nc(-c3nccn3C)nc3sc(-c4cccc(O)c4F)c(-c4ccccc4)c23)C1` (centres unmarked) [drawing 625]: the inhibition at 10 µM lay in the range of 76 to 100% and the IC50 is above 1000 nM.

As to `COc1cccc(-c2sc3nc(-c4nccn4C)nc(N[C@H]4C[C@@H](OC)C4)c3c2-c2ccccc2)c1F` [drawing 626], the inhibition at 10 µM was in the range of 76 to 100% and the concentration for half-maximal inhibition (IC50) is 500 to 749 nM.

As for `CO[C@H]1C[C@@H](Nc2nc(-c3nccn3C)nc3sc(-c4cnn(C)c4)c(-c4ccccc4)c23)C1` [drawing 627], the inhibition at 10 µM fell in the range of 76 to 100% and the IC50 lay within 750 to 1000 nM.

In the case of `COc1cccc(-c2sc3nc(-c4nccn4C)nc(NC4CCC(OC)C4)c3c2C)c1F` (centres unmarked) [drawing 628], the inhibition at 10 µM was 76 to 100% and the IC50 was 750 to 1000 nM.

Turning to `COc1cccc(-c2sc3nc(-c4nccn4C)nc(N[C@@H]4CC[C@H](OC)C4)c3c2C)c1F` [drawing 629], the inhibition at 10 µM lay in the range of 76 to 100% and the IC50 was in the range of 750 to 1000 nM.

On to `COC1CCC(Nc2nc(-c3nccn3C)nc3sc(-c4cccc5[nH]ncc45)c(C)c23)C1` (centres unmarked) [drawing 630], for which the inhibition at 10 µM is 76 to 100% and the half-maximal inhibitory concentration (IC50) was above 1000 nM.

As for `COc1cccc(-c2sc3nc(-c4nc(C)cn4C)nc(N[C@@H]4CC[C@H](OC)C4)c3c2C)c1F` [drawing 631], the inhibition at 10 µM lay within 76 to 100% and the IC50 was 750 to 1000 nM.

Regarding `CO[C@H]1CC[C@@H](Nc2nc(-c3nc(C)cn3C)nc3sc(-c4cccc5[nH]ncc45)c(C)c23)C1` [drawing 632], the inhibition at 10 µM fell in the range of 76 to 100% and the half-maximal inhibitory concentration (IC50) is above 1000 nM.

For the compound `COCCn1ccnc1-c1nc(O)c2scc(-c3ccc(OCC(C)C)nc3)c2n1` [drawing 633], the inhibition at 10 µM lay in the range of 76 to 100% and the IC50 is below 500 nM.

For the compound `CC(C)COc1ccc(-c2csc3c(O)nc(-c4nccn4Cc4ccccn4)nc23)cn1` [drawing 634], the inhibition at 10 µM lay in the range of 76 to 100% and the half-inhibitory concentration (IC50) fell in the range of 500 to 749 nM.

On to `COc1cccc(Cn2ccnc2-c2nc(O)c3scc(-c4ccc(OCC(C)C)nc4)c3n2)c1` [drawing 635], for which the inhibition at 10 µM was 76 to 100% and the half-inhibitory concentration (IC50) was below 500 nM.

Turning to `CO[C@H]1CC[C@@H](Nc2nc(-c3nccn3C)nc(C(=O)N3CCc4c(O)cccc4C3)c2C)C1` [drawing 636], the inhibition at 10 µM lay in the range of 1 to 25% and the IC50 is above 1000 nM.

For `CO[C@H]1C[C@@H](Nc2nc(-c3ccccn3)nc3sccc23)C1` [drawing 637], the inhibition at 10 µM lay within 1 to 25% and the IC50 is above 1000 nM.

For `CO[C@H]1C[C@@H](Nc2nc(-c3nccn3C)nc3sccc23)C1` [drawing 638], the inhibition at 10 µM was 26 to 50% and the concentration for half-maximal inhibition (IC50) was above 1000 nM.

For the compound `Cn1ccc(-c2sc3nc(-c4nccn4C)nc(O)c3c2-c2ccccc2)n1` [drawing 639], the inhibition at 10 µM lay in the range of 76 to 100% and the concentration for half-maximal inhibition (IC50) is above 1000 nM.

`CO[C@H]1C[C@@H](Nc2nc(-c3nccn3C)nc3sc(-c4ccn(C)n4)c(-c4ccccc4)c23)C1` [drawing 640]: the inhibition at 10 µM lay within 76 to 100% and the IC50 was above 1000 nM.

Take `CO[C@H]1C[C@H](Nc2nc(-c3nccn3C)nc3sc(-c4ccn(C)n4)c(-c4ccccc4)c23)C1` [drawing 641]: the inhibition at 10 µM fell in the range of 76 to 100% and the IC50 was above 1000 nM.

As to `CN(C)CCOCCNc1nc(-c2nccn2C)nc2sc(-c3ccn(C)n3)c(-c3ccccc3)c12` [drawing 642], the inhibition at 10 µM lay in the range of 76 to 100% and the IC50 is above 1000 nM.

As to `Cn1ccc(-c2sc3nc(-c4nccn4C)nc(N[C@H]4C[C@@H](O)C4)c3c2-c2ccccc2)n1` [drawing 643], the inhibition at 10 µM turned out to be 0% and the IC50 was above 1000 nM.

For the compound `CO[C@H]1C[C@@H](Nc2nc(-c3ncc[nH]3)nc3sc(-c4ccn(C)n4)c(-c4ccccc4)c23)C1` [drawing 645], the inhibition at 10 µM lay within 76 to 100% and the concentration for half-maximal inhibition (IC50) was 750 to 1000 nM.

`CO[C@H]1CC[C@@H](Nc2nc(-c3ncc[nH]3)nc3sc(-c4ccn(C)n4)c(-c4ccccc4)c23)C1` [drawing 646]: the inhibition at 10 µM is 76 to 100% and the IC50 was in the range of 750 to 1000 nM.

On to `CO[C@H]1CC[C@@H](Nc2nc(-c3nccn3C)nc3sc(-c4ccn(C(C)C)n4)c(-c4ccccc4)c23)C1` [drawing 647], for which the inhibition at 10 µM is 76 to 100% and the half-maximal inhibitory concentration (IC50) fell in the range of 500 to 749 nM.

In the case of `COc1nc(-c2ccccn2)nc2c(-c3ccccn3)csc12` [drawing 648], the inhibition at 10 µM was in the range of 51 to 75% and the IC50 is above 1000 nM.

Regarding `CO[C@H]1C[C@@H](Nc2nc(-c3nccn3C)nc3sc(-c4ccn(C)n4)c(C)c23)C1` [drawing 649], the inhibition at 10 µM lay in the range of 76 to 100% and the IC50 is above 1000 nM.

With `CO[C@H]1CC[C@@H](Nc2nc(-c3nccn3C)nc3sc(-c4ccn(C)n4)c(C)c23)C1` [drawing 650], the inhibition at 10 µM is 76 to 100% and the IC50 is 750 to 1000 nM.

On to `Cc1c(-c2ccn(C)n2)sc2nc(-c3nccn3C)nc(NCCCS(C)(=O)=O)c12` [drawing 651], for which the inhibition at 10 µM was determined as 0% and the 50% inhibitory concentration (IC50) is above 1000 nM.

Consider `Cc1c(-c2ccn(C)n2)sc2nc(-c3nccn3C)nc(NCCCC(=O)N(C)C)c12` [drawing 652], for which the inhibition at 10 µM came to 0% and the IC50 is above 1000 nM.

Regarding `Cc1c(-c2ccn(C)n2)sc2nc(-c3nccn3C)nc(NCCOC(=O)N(C)C)c12` [drawing 653], the inhibition at 10 µM fell in the range of 26 to 50% and the concentration for half-maximal inhibition (IC50) is above 1000 nM.

Turning to `CO[C@H]1CC[C@@H](Nc2nc(-c3nccn3C)nc3sc(-c4ccn(C(C)C)n4)c(C)c23)C1` [drawing 654], the inhibition at 10 µM is 76 to 100% and the half-inhibitory concentration (IC50) lay within 500 to 749 nM.

For the compound `CO[C@H]1C[C@@H](Nc2nc(-c3nccn3C)nc3sc(C(=O)NC(C)C)c(-c4ccccc4)c23)C1` [drawing 655], the inhibition at 10 µM lay within 51 to 75% and the IC50 was above 1000 nM.

In the case of `COCCNC(=O)c1sc2nc(-c3nccn3C)nc(N[C@H]3C[C@@H](OC)C3)c2c1-c1ccccc1` [drawing 656], the inhibition at 10 µM lay within 26 to 50% and the IC50 is above 1000 nM.

Turning to `CO[C@H]1C[C@@H](Nc2nc(-c3nccn3C)nc3sc(C(=O)N4CCOCC4)c(-c4ccccc4)c23)C1` [drawing 657], the inhibition at 10 µM is 26 to 50% and the 50% inhibitory concentration (IC50) is above 1000 nM.

On to `COC1CCN(C(=O)c2sc3nc(-c4nccn4C)nc(N[C@H]4C[C@@H](OC)C4)c3c2-c2ccccc2)C1` (some centres unmarked) [drawing 658], for which the inhibition at 10 µM fell in the range of 26 to 50% and the concentration for half-maximal inhibition (IC50) was above 1000 nM.

For the compound `CO[C@H]1CC[C@@H](Nc2nc(-c3nccn3C)nc3sc(C(=O)NC(C)C)c(-c4ccccc4)c23)C1` [drawing 659], the inhibition at 10 µM fell in the range of 76 to 100% and the IC50 is above 1000 nM.

For `COCCNC(=O)c1sc2nc(-c3nccn3C)nc(N[C@@H]3CC[C@H](OC)C3)c2c1-c1ccccc1` [drawing 660], the inhibition at 10 µM was in the range of 76 to 100% and the half-maximal inhibitory concentration (IC50) is above 1000 nM.

On to `CO[C@H]1CC[C@@H](Nc2nc(-c3nccn3C)nc3sc(C(=O)N4CCCC4)c(-c4ccccc4)c23)C1` [drawing 661], for which the inhibition at 10 µM was in the range of 76 to 100% and the IC50 was above 1000 nM.

With `CO[C@H]1CC[C@@H](Nc2nc(-c3nccn3C)nc3sc(C(=O)N4CCOCC4)c(-c4ccccc4)c23)C1` [drawing 662], the inhibition at 10 µM was 51 to 75% and the IC50 was above 1000 nM.
